{
  "source": "the supplement of paper PMC10307832",
  "assay_in_all_cases": "relative viability (nuclei count vs DMSO), 5 days (fraction); higher = more cells survive",
  "key": {"Motesanib + Pictilisib": {"compound": "CC1(C)CNc2cc(NC(=O)c3cccnc3NCc3ccncc3)ccc21 [Motesanib] + CS(=O)(=O)N1CCN(Cc2cc3nc(-c4cccc5[nH]ncc45)nc(N4CCOCC4)c3s2)CC1 [Pictilisib] (partner 1 µM)", "in_short": "(§1)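 After 5 days of treatment, lung cancer cells in 1536-well plates were fixed and stained in a single step (final 0.05% Triton X-100, 1% formaldehyde, 1 ug/ml Hoechst) and their nuclei counted on 4× images. Treatment had been applied by pin tool the day after seeding as one drug alone or as a fixed anchor-drug dose with five library-drug doses (not always all listed) in √10 steps. Relative viability is the nuclei count of treated wells divided by that of vehicle wells, and values are medians of duplicate plates.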"}, "[1]": {"compound": "C[C@@]1(C(=O)Nc2ccc(F)nc2)CCCN1c1nc(Nc2cc(C3CC3)n[nH]2)c2cccn2n1 + O=C(c1cc(Cc2n[nH]c(=O)c3ccccc23)ccc1F)N1CCN(C(=O)C2CC2)CC1 [Olaparib] (partner 8 µM)", "in_short": "as §1"}, "Motesanib + Trametinib": {"compound": "CC1(C)CNc2cc(NC(=O)c3cccnc3NCc3ccncc3)ccc21 [Motesanib] + CC(=O)Nc1cccc(-n2c(=O)n(C3CC3)c(=O)c3c(Nc4ccc(I)cc4F)n(C)c(=O)c(C)c32)c1 [Trametinib] (partner 0.02 µM)", "in_short": "as §1"}, "[2]": {"compound": "C[C@@]1(C(=O)Nc2ccc(F)nc2)CCCN1c1nc(Nc2cc(C3CC3)n[nH]2)c2cccn2n1 + CS(=O)(=O)CCNCc1ccc(-c2ccc3ncnc(Nc4ccc(OCc5cccc(F)c5)c(Cl)c4)c3c2)o1 [Lapatinib] (partner 2 µM)", "in_short": "as §1"}},
  "data": [
    {"cell line": "UMC-11", "values": [
      {"measurement": "relative viability", "setting": "Motesanib + Pictilisib; first compound 0.01 µM", "value": 0.778},
      {"measurement": "relative viability", "setting": "Motesanib + Pictilisib; first compound 0.03162 µM", "value": 0.923},
      {"measurement": "relative viability", "setting": "Motesanib + Pictilisib; first compound 0.1 µM", "value": 0.5},
      {"measurement": "relative viability", "setting": "Motesanib + Pictilisib; first compound 0.3162 µM", "value": 0.759},
      {"measurement": "relative viability", "setting": "Motesanib + Pictilisib; first compound 1 µM", "value": 0.863},
      {"measurement": "relative viability", "setting": "[1]; first compound 0.04 µM", "value": 0.376},
      {"measurement": "relative viability", "setting": "[1]; first compound 0.1265 µM", "value": 0.316},
      {"measurement": "relative viability", "setting": "[1]; first compound 0.4 µM", "value": 0.336},
      {"measurement": "relative viability", "setting": "[1]; first compound 1.265 µM", "value": 0.426},
      {"measurement": "relative viability", "setting": "Motesanib + Trametinib; first compound 0.01 µM", "value": 0.659},
      {"measurement": "relative viability", "setting": "Motesanib + Trametinib; first compound 0.03162 µM", "value": 0.94},
      {"measurement": "relative viability", "setting": "Motesanib + Trametinib; first compound 0.1 µM", "value": 0.611},
      {"measurement": "relative viability", "setting": "Motesanib + Trametinib; first compound 0.3162 µM", "value": 0.744},
      {"measurement": "relative viability", "setting": "Motesanib + Trametinib; first compound 1 µM", "value": 0.762},
      {"measurement": "relative viability", "setting": "[2]; first compound 0.04 µM", "value": 1.02},
      {"measurement": "relative viability", "setting": "[2]; first compound 0.1265 µM", "value": 1.02},
      {"measurement": "relative viability", "setting": "[2]; first compound 0.4 µM", "value": 0.826},
      {"measurement": "relative viability", "setting": "[2]; first compound 1.265 µM", "value": 0.805}
    ]}
  ]
}
